Reference: patent US20060154936A1, “Use of n-'5-'4-(4-methylpiperaziomethyl)-benzoylamido!-2-methylphenyl!-4-(3-pyridyl)2-pyridine-amine for the treatment of pulmonary hypertension” (priority 2002, published 2006)

Test system: hypoxia-induced pulmonary hypertension
Experiment: Hypoxia-induced pulmonary hypertension in rats (hypobaric-hypoxic vs ambient air, 3 weeks)
Type: in vivo, Spraque-Dawley rats
Details: for % wall thickness (medial hypertrophy index, pulmonary artery) / RV/LV + S(%) (right ventricle/left ventricular + septum weight ratio) / mPAP (mean pulmonary arterial pressure): 50 mg/kg intraperitoneal once daily for 3 weeks; for mPAP (mean pulmonary arterial pressure): right cardiac catheterization
Source text: This study is designed to investigate the effects of PDGF receptor signal transduction blockade on the development of hypoxia-induced pulmonary hypertension using a PDGF receptor-selective tyrosine kinase inhibitor, e.g. COMPOUND I, COMPOUND I mesylate.
The methodology as described by Ortiz L A, Champion H C, Lasky J A and col.
Pulmonary arterial pressure (PAP) can be measured in anesthetized mice with the use of a single-lumen catheter (Nu-Med, Hopkinton, N.Y.). The catheter (145 mm in length, 0.25 mm OD) has a specially curved tip to facilitate passage through the right heart, main pulmonary artery, and the left or right pulmonary artery. Immediately after placement of the pulmonary catheter (30 min in average), pressure in the main pulmonary artery is measured with a pressure transducer (Schneider/Namic, Glenns Falls, N.Y.), and mean PAP is derived electronically and recorded continuously. For the determination of pulmonary arterial wedge pressure, the catheter is advanced to the left or right pulmonary artery and wedged with continuous measurement of the pressure waveform.
Lung morphology and evaluation of right ventricular hypertrophy can be performed as below. The heart is perfused with 0.9% NaCl to remove residual blood, and the right lung is fixed in situ for 2 h by intratracheal instillation of 10% neutral formalin (Sigma, St. Louis, Mo.) at a constant pressure of 30 cmH2O and was preserved in fixative for 24 h. Lung tissues are then sectioned sagittally and embedded in paraffin. Sections (4 μm thick) are generated and mounted on positively charged slides (Fisher Scientific, Pittsburgh, Pa.). Slides are stained with hematoxylin-eosin for light microscopic examination. Immediately after death, hearts are resected to evaluate right ventricular hypertrophy. The atria are removed up to the plane of the atrial-ventricular valves. The right ventricle (RV) free wall is then dissected free of the left ventricle (LV) and septum. The RV and LV plus septum are weighed and the RV-to-LV+septum ratio is calculated.
Ten Spraque-Dawley rats are exposed to hypobaric-hypoxic (HH) conditions and ten ambient air (AA) animals are used as controls. The rats in both conditions are randomized to receive intraperitoneal injections with either once daily COMPOUND I (50 mg/kg) or placebo for 3 weeks. Right cardiac catheterizations are used to evaluate the mean pulmonary arterial pressure (mPAP). Subsequently, the rats are sacrificed for the evaluation of their medial hypertrophy index (% wall thickness of the pulmonary artery), and right ventricular hypertrophy (right ventricle/left ventricular +septum weight ratio; RV/LV+S).

Compound: Cc1ccc(NC(=O)c2ccc(CN3CCN(C)CC3)cc2)cc1Nc1nccc(-c2cccnc2)n1 [COMPOUND I]
- % wall thickness (medial hypertrophy index, pulmonary artery) (ambient air (AA) rats): 10.32 ± 0.33%
- RV/LV + S(%) (right ventricle/left ventricular + septum weight ratio) (ambient air (AA) rats): 24.60 ± 1.08%
- mPAP (mean pulmonary arterial pressure) (ambient air (AA) rats): 16.20 ± 1.93 mmHg
- % wall thickness (medial hypertrophy index, pulmonary artery) (hypobaric-hypoxic (HH) rats): 14.77 ± 0.73%
- RV/LV + S(%) (right ventricle/left ventricular + septum weight ratio) (hypobaric-hypoxic (HH) rats): 35.85 ± 1.29%
- mPAP (mean pulmonary arterial pressure) (hypobaric-hypoxic (HH) rats): 19.50 ± 1.32 mmHg
- lowering of the index of % wall thickness (rats, 50 mg/kg i.p. once daily, 3 weeks, p=0.001): 59%
- reduction of hypoxic-induced pulmonary hypertension (rats, 50 mg/kg i.p. once daily, 3 weeks, p=0.002): 80%
- reduction of RV hypertrophy (rats, 50 mg/kg i.p. once daily, 3 weeks, p=0.006): 46%
